Experimental data as given in patent publication US20250129095A1, “ANNULATED 2-AMINO-3-CYANO THIOPHENES AND DERIVATIVES FOR THE TREATMENT OF CANCER” (Boehringer Ingelheim Int'l GmbH Corp., priority 2021, published 2025).

How the values were obtained:
Caco-2 assay = type: in vitro ADME; conditions: human, 10 μM test compound, pH 7.4
Source text: The assay provides information on the potential of a compound to pass the cell membrane, on the extent of oral absorption as well as on whether the compound is actively transported by uptake and/or efflux transporters. Permeability measurements across polarized, confluent Caco-2 cell monolayers grown on permeable filter supports (Corning, catalog #3391) are used. […] The receiver and donor compartments contain 0.25% bovine serum albumine (BSA) in assay buffer. Passive diffusion and/or active transport of compounds across the monolayer is measured in both apical to basolateral (a-b) and basolateral to apical (b-a) direction. a-b permeability (PappAB) represents drug absorption from the intestine into the blood and b-a permeability (PappBA) drug secretion from the blood back into the intestine via both passive permeability as well as active transport mechanisms mediated by efflux and uptake transporters that are expressed on the Caco-2 cells. After a pre-incubation of 25-30 min at 37° C., at predefined time points (0, 30, 60 and 90 min), samples were taken from the receiver and donor compartment, respectively.
Concentrations of test compounds in samples were measured by HPLC/MS/MS, samples from the donor compartment were diluted 1:50 (v:v) with assay buffer, samples from receiver compartment were measured without dilution.
Apparent permeabilities in a-b (PappAB) and b-a (PappBA) directions are calculated according to the formula:
[formula] • Vrec [mL]: buffer volume in receiver compartment • Cdon [pmol/mL]: concentration of test compound in donor compartment at t=0 • ΔCrec: difference between concentrations of test compound in receiver compartment at start and end of incubation time • Δt: Incubation time • Vrec·ΔCrec/Δt [[…]]: Amount of compound transferred to receiver compartment per time • A [cm^2]: filter surface
Caco-2 efflux ratios (ER) are calculated as the ratio of PappBA/PappAB.

KRAS (G12V)::SOS1 = target: T1, KRAS (G12V)::SOS1 (Homo sapiens, UniProt P01116, C118S/G12V); test: KRAS::SOS1 AlphaScreen binding assay, KRAS G12V
T1 construct: KRAS (G12V) 1-169, N-terminal 6His-tag for purification, cleaved off; 6His-tag (N, cleaved yes); TEV cleavage site; made in house
Source text: (§1) This assay can be used to examine the potency with which compounds according to the invention binding to (mutated) KRAS inhibit the protein-protein interaction between SOS1 and (mutated) KRAS e.g., KRAS WT, KRAS G12C, KRAS G12D, KRAS G12V, KRAS G13D. […] Low IC50 values in this assay setting are indicative of strong inhibition of protein-protein interaction between SOS1 and KRAS:
(§2) These assays measure the inhibitory effect of compounds on KRAS mutant protein-protein interactions using the Alpha Screen technology by Perkin Elmer
(§3) The following (mutant) enzyme forms of KRAS and interacting proteins are used in these assays at the given concentrations: • KRAS (G12D) 1-169, N-terminal 6His-tag, C-terminal avi-tag (Xtal BioStructures, Inc.); final assay concentration 10 nM and SOS1 564-1049, N-terminal 229 GST-tag, TEV cleavage site (Viva Biotech Ltd); final assay concentration 5 nM; • KRAS (G12C) 1-169, N-terminal 6His-tag for purification, cleaved off, C-terminal avi-tag, biotinylated, mutations: C51S, C80L, C118S (in house); final assay concentration 7.5 nM and SOS1 564-1049, N-terminal 229 GST-tag, TEV cleavage site (Viva Biotech Ltd); final assay concentration 5 nM; • KRAS (G12V) 1-169, N-terminal 6His-tag for purification, cleaved off, C-terminal avi-tag, biotinylated, TEV cleavage site, mutation: C118S, GDP loaded (in house); final assay concentration 10 nM and SOS1 564-1049, N-terminal 229 GST-tag, TEV cleavage site (Viva Biotech Ltd); final assay concentration 10 nM; • KRAS (G13D) 1-169, N-terminal 6His-tag for purification, cleaved off, C-terminal avi-tag, biotinylated, TEV cleavage site, mutation: C118S, GDP loaded (in house); final assay concentration 10 nM and SOS1 564-1049, N-terminal 229 GST-tag, TEV cleavage site (Viva Biotech Ltd); final assay concentration 10 nM; • KRAS (WT) 1-169, N-terminal 6His-tag for purification, cleaved off, C-terminal avi-tag, biotinylated, TEV cleavage site, mutation: C118S, GDP loaded (in house); final assay concentration 10 nM and SOS1 564-1049, N-terminal 229 GST-tag, TEV cleavage site (Viva Biotech Ltd); final assay concentration 10 nM.
(§4) Test compounds dissolved in DMSO are dispensed onto assay plates (Proxiplate 384 PLUS, white, PerkinElmer; 6008289) using an Access Labcyte Workstation with the Labcyte Echo 55×. For the chosen highest assay concentration of 100 μM, 150 nL of compound solution are transferred from a 10 mM DMSO compound stock solution. A series of eleven fivefold dilutions per compound are transferred to the assay plate, compound dilutions are tested in duplicates. DMSO are added as backfill to a total volume of 150 nL.
(§5) The assays run on a fully automated robotic system in a darkened room below 100 Lux. To 150 nl of compound dilution 10 μl of a mix including KRAS mutant protein, SOS1 (final assay concentrations see above) and GDP nucleotide (Sigma G7127; final assay concentration 10 μM) in assay buffer (1×PBS, 0.1% BSA, 0.05% Tween 20) are added into columns 1-24.
(§6) After 30 minutes incubation time 5 μl of Alpha Screen bead mix in assay buffer are added into columns 1-23. Bead mix consists of AlphaLISA Glutathione Acceptor Beads (PerkinElmer, Cat No AL109) and AlphaScreen Streptavidin Donor Beads (PerkinElmer Cat No 6760002) in assay buffer at a final assay concentration of 10 μg/ml each.
(§7) Plates are kept at room temperature in a darkened incubator. After an additional 60 minutes incubation time the signal is measured in a PerkinElmer Envision HTS Multilabel Reader using the AlphaScreen specs from PerkinElmer.
(§8) Each plate contains up to 16 wells of a negative control depending on the dilution procedure (platewise or serial) (DMSO instead of test compound; with KRAS mutant::SOS1 GDP mix and bead mix; column 23) and 16wells of a positive control (DMSO instead of test compound; with KRAS mutant::SOS1 GDP mix w/o bead mix; column 24).
(§9) As internal control known inhibitors of KRAS mutant::SOS1 interaction can be measured on each compound plate. […]

KRAS (WT)::SOS1 = target: T2, KRAS (WT)::SOS1 (Homo sapiens, UniProt P01116, C118S); test: KRAS::SOS1 AlphaScreen binding assay, KRAS WT
T2 construct: KRAS (WT) 1-169, N-terminal 6His-tag for purification, cleaved off; 6His-tag (N, cleaved yes); TEV cleavage site; made in house
Source text: as §1, §2, §3, §4, §5, §6, §7, §8, §9

T2 sequence (P01116 1-169 isoform P01116-2 C118S): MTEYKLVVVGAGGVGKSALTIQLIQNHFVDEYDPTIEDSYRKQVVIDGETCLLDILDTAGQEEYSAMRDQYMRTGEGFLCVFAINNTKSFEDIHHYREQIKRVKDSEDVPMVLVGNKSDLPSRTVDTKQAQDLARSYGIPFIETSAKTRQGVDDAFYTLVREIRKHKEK
T1 sequence (P01116 1-169 isoform P01116-2 G12V/C118S): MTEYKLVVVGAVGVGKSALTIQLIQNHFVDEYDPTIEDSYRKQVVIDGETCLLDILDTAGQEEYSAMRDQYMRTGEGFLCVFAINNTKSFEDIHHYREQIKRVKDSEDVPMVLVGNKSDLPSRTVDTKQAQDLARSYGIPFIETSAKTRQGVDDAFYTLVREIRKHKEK

Papp A→B at 90 min, 10 μM (Caco-2 assay; Caco-2, apical to basolateral (a-b) permeability, read-out: Caco PappAB): 0.2 ×10⁻⁶ cm/s
efflux ratio at 90 min, 10 μM (Caco-2 assay; Caco-2 efflux ratio PappBA/PappAB, read-out: Caco ER): 132
IC50 (KRAS (G12V)::SOS1): 3 nM
IC50 (KRAS (WT)::SOS1): 2 nM
SMILES: C[C@H](Oc1cc(O[C@@H]2CNC2(C)C)nc(-c2noc3c2CCC[C@@]32CCCc3sc(N)c(C#N)c32)n1)[C@@H]1CCCN1C [II-9]
